The record followed here is patent publication US9029384B2, “Phosphatidylinositol 3-kinase inhibitors” (Gilead Calistoga LLC, priority 2012, dated 2015).

For one data set, the system named is basophils. The experiment in a line: Basophil activation in human whole blood (Flow2 CAST kit, CD63 positive cells). The class given is cell-based. The conditions noted are these: Homo sapiens. The procedure, abridged:
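Human whole blood (K2-EDTA) preincubated 60 minutes at 37° C with compound serial dilutions or DMSO (0.3% final), then stimulated with anti-FcεRI mAb or fMLP and stained for CD63/CCR3. Percent CD63+ among ≥200 CCR3-high basophils by flow cytometry, normalized to stimulated vehicle as 100%. EC50 from four-parameter fits, geometric means in nM, concentrations corrected for reagent dilution.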

The nature of data set [1]: Hepatocyte stability, 1% final DMSO, 2 μM substrate (t1/2^a). The conditions noted are these: human, cryopreserved hepatocytes, TA with 1% final DMSO. The class given is in vitro ADME. On the procedure:
This assay was used to evaluate the metabolic stability of test articles (TA) following incubation in cryopreserved hepatocytes by monitoring parent drug disappearance via […]. The TA with 1% final DMSO concentration was incubated with 1 million hepatocytes/ml at 2 μM substrate in duplicate. The incubation was carried out at 37° C. with 5% CO2 and saturating humidity.

Another data set addresses T1, PI3Kδ (Homo sapiens, UniProt O00329).
T1 construct: made in house
The experiment in a line: Enzymatic activity of PI3K isoforms, TR-FRET assay (PIP3 formation). The class given is biochemical. The procedure, abridged: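 Recombinant heterodimeric class I PI3K; PIP3 product measured by TR-FRET competition with labelled PIP3 for Eu-GRP-1 PH domain. Reaction 30 min at 25 °C, stopped with 10 mM EDTA.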
(Time-resolved FRET reads energy transfer from a long-lived donor to a nearby acceptor.)

Data set [2] is described as follows: Hepatocyte stability, 0.01% final DMSO, 1 μM substrate (t1/2^b). The class given is in vitro ADME. The conditions noted are these: human, hepatocytes, TA with 0.01% final DMSO. On the procedure:
Alternatively, assay reagents and/or conditions can be modified in determining the inhibitory activities to PI3K isomers. In additional studies, similar assay using TA and 0.01% final DMSO concentration were incubated with 1 million hepatocytes/mL at 1 μM substrate in duplicate. The incubation was carried out at 37° C. with 5% CO2 and saturating humidity.

[3] abbreviates: basophils activated with anti-FcεRI mAb or fMLP, geometric mean.
Where [4] appears, read: 2 μM substrate, samples at 0, 1, 2, 4 hours, read-out: human hepatocyte t½^a.
Where [5] appears, read: PI3Kδ, TR-FRET, 2×Km ATP, 10 μM PIP2, read-out: IC50.
The mark [6] stands for this setting: 1 μM substrate, samples at 0, 1, 3, 6 hours, read-out: human hepatocyte t½^b.
Where [7] appears, read: human hepatocytes, read-out: t1/2^a.
[8] abbreviates: human hepatocytes, read-out: t1/2^b.

Like-named read-outs stand apart in the source and are kept apart here. Bounds are passed on as bounds.

T1 sequence (O00329 whole entry): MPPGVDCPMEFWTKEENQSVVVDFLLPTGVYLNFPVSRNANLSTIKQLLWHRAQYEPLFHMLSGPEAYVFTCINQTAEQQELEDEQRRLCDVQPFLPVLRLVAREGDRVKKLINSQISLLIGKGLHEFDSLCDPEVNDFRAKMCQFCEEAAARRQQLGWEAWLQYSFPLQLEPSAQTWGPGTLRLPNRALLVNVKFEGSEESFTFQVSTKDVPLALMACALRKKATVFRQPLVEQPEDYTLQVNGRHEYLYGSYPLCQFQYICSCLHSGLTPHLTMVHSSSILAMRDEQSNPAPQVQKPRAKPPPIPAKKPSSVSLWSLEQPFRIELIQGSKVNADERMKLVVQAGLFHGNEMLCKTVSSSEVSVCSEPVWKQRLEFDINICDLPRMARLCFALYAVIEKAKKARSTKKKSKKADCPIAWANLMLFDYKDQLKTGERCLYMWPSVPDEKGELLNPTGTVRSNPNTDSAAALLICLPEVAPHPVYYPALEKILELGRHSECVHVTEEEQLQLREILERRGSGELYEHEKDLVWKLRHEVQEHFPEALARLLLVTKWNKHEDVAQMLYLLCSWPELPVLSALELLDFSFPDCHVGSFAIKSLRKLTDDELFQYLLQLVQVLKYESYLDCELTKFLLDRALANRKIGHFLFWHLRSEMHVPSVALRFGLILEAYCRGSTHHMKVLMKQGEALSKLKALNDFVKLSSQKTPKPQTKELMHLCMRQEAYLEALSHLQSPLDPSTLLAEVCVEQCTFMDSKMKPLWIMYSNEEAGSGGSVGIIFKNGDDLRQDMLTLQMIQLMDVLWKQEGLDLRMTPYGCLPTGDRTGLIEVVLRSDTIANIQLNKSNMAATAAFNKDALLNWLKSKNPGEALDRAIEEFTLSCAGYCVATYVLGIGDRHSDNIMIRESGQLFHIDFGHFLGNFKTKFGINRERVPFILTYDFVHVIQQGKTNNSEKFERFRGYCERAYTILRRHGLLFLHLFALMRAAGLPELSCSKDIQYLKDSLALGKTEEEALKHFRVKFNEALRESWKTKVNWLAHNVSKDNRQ
T1 sequence (P27986 whole entry partner): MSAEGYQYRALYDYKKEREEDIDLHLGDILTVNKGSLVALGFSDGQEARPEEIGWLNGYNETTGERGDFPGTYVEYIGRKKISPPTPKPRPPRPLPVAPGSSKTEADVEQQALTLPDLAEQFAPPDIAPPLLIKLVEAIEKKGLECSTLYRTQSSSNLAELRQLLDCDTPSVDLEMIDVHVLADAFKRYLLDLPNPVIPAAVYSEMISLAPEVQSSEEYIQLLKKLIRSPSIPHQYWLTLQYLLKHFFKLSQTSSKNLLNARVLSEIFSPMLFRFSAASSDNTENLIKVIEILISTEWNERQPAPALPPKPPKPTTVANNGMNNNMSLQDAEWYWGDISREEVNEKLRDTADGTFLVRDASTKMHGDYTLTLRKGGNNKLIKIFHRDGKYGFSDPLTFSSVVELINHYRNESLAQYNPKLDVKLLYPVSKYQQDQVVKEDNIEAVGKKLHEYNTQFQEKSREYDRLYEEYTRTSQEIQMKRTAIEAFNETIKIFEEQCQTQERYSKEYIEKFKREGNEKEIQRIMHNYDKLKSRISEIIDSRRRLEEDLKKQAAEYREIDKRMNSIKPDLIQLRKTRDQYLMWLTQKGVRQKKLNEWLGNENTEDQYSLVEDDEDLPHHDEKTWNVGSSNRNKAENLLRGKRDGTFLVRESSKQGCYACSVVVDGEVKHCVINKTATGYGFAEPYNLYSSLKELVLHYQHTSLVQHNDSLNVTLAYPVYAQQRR

One may read the EC50 as the concentration giving half of the maximal effect. Broadly, the IC50 is the point on the concentration scale where inhibition reaches its midpoint. Take `Cc1ccc(F)c2c(=O)n(-c3ccccc3)c(C(C)Nc3nc(N)nc(N)c3C#N)nc12` (single isomer, unassigned) [Compound 61a]: the EC50 in the data set with basophils (setting [3]) was under 1 nM. Moreover, in data set [1] (setting [4]), the half-life at 2 μM was over 10 h. Moreover, the IC50 on PI3Kδ (setting [5]) is 1 to 10 nM. In data set [2] (setting [6]), the half-life at 1 μM lay in the range of 3 to 6 h.
The corresponding values for `CC(Nc1nc(N)nc(N)c1C#N)c1nc2c(Cl)ccc(F)c2c(=O)n1-c1cc(F)cc(F)c1` (single isomer, unassigned) [Compound 67a] are 1 to 10 nM, over 10 h, 1 to 10 nM and 1 to 3 h.
As for `CC(Nc1nc(N)nc(N)c1C#N)c1nc2c(Cl)cccc2c(=O)n1-c1cc(F)cc(F)c1` (single isomer, unassigned) [Compound 71a], the EC50 in the data set on basophils (setting [3]) lay in the range of 1 to 10 nM. The half-life at 2 μM in data set [1] (setting [4]) is over 10 h. The IC50 at PI3Kδ (setting [5]) fell in the range of 1 to 10 nM. Also, the half-life at 1 μM in data set [2] (setting [6]) fell in the range of 1 to 3 h.
As to `CC(Nc1nc(N)nc(N)c1C(N)=O)c1nc2cccc(Cl)c2c(=O)n1-c1cc(F)cc(F)c1` (single isomer, unassigned) [Compound 90a], in the data set on basophils (setting [3]), the EC50 lay in the range of 1 to 10 nM. The half-life at 2 μM in data set [1] (setting [4]) was over 10 h. Moreover, the IC50 on PI3Kδ (setting [5]) is 1 to 10 nM. Moreover, the half-life at 1 μM in data set [2] (setting [6]) fell in the range of 3 to 6 h.
As for `CC(Nc1nc(N)nc(N)c1C#N)c1nc2cccc(F)c2c(=O)n1-c1cccc(C(F)F)c1` (single isomer, unassigned) [Compound 97a], in the data set with basophils (setting [3]), the EC50 is 1 to 10 nM. The half-life at 2 μM in data set [1] (setting [4]) is over 10 h. The IC50 at PI3Kδ (setting [5]) fell in the range of 1 to 10 nM. Moreover, in data set [2] (setting [6]), the half-life at 1 μM fell in the range of 3 to 6 h.
In the case of `CC(Nc1nc(N)nc(N)c1C#N)c1nc2c(C#N)cccc2c(=O)n1-c1cc(F)cc(F)c1` (single isomer, unassigned) [Compound 101a], the EC50 with basophils (setting [3]) lay in the range of 1 to 10 nM. Besides, the half-life at 2 μM in data set [1] (setting [4]) was over 10 h. Besides, the IC50 on PI3Kδ (setting [5]) fell in the range of 1 to 10 nM. Besides, in data set [2] (setting [6]), the half-life at 1 μM lay within 3 to 6 h.
As for `CC(Nc1nc(N)nc(N)c1C#N)c1nc2cccc(Cl)c2c(=O)n1-c1cccc(C(F)F)c1` (single isomer, unassigned) [Compound 106a], the EC50 in the data set on basophils (setting [3]) lay in the range of 1 to 10 nM. Besides, the half-life at 2 μM in data set [1] (setting [4]) is over 10 h. Further, the IC50 on PI3Kδ (setting [5]) is under 1 nM. Moreover, the half-life at 1 μM in data set [2] (setting [6]) is 1 to 3 h.
The matching figures for `CC(Nc1nc(N)nc(N)c1C#N)c1nc2cccc(Cl)c2c(=O)n1-c1cccc(F)c1` (single isomer, unassigned) [Compound 108a]: 1 to 10 nM, over 10 h, under 1 nM and 3 to 6 h.
The matching figures for `CC(Nc1nc(N)nc(N)c1C#N)c1nc2c(C#N)cccc2c(=O)n1-c1ccccc1` (single isomer, unassigned) [Compound 122a]: 1 to 10 nM, over 10 h, 1 to 10 nM and over 10 h.
For `C[C@H](Nc1nc(N)nc(N)c1C#N)c1nc2cccc(Cl)c2c(=O)n1-c1cc(F)cc(F)c1` [Compound 1a, 2,4-diamino-6-((1-(5-chloro-3-(3,5-difluorophenyl)-4-oxo-3,4-dihydroquinazolin-2-yl)ethyl)amino)pyrimidine-5-carbonitrile], the EC50 with basophils (basophil activation) was under 0.5 nM; in the data set with basophils (setting [3]), under 1 nM. Moreover, the half-life at 2 μM is 6 to 10 h in data set [1] (setting [4]) and over 9 h in data set [1] (setting [7]). The IC50 on PI3Kδ (setting [5]) is under 1 nM. Further, the half-life at 1 μM is 1 to 3 h in data set [2] (setting [6]) and over 1 h in data set [2] (setting [8]).
Turning to `CC[C@H](Nc1nc(N)nc(N)c1C#N)c1nc2cccc(F)c2c(=O)n1-c1cc(F)cc(F)c1` [Compound 77a, (S)-2,4-diamino-6-((1-(3-(3,5-difluorophenyl)-5-fluoro-4-oxo-3,4-dihydroquinazolin-2-yl)propyl)amino)pyrimidine-5-carbonitrile], the EC50 in the data set with basophils (setting [3]) lay in the range of 1 to 10 nM. In addition, the half-life at 2 μM in data set [1] (setting [4]) was over 10 h. Moreover, at PI3Kδ (setting [5]), the IC50 was 1 to 10 nM. Besides, in data set [2] (setting [6]), the half-life at 1 μM was 1 to 3 h.
On to `C[C@H](Nc1ncnc(N)c1C#N)c1nc2cccc(Cl)c2c(=O)n1-c1ccccc1` [Y, reference compound], for which the EC50 with basophils (basophil activation) is over 15 nM; with basophils (setting [3]), 10 to 50 nM. For the same compound, the figures for the half-life at 2 μM in data set [1] (setting [4]) and in data set [1] (setting [7]) were under 1 h and under 2 h, respectively. In addition, the IC50 against PI3Kδ was under 1 nM. Further, the half-life at 1 μM in data set [2] (setting [8]) is under 2 h.
For the compound `C[C@H](Nc1ncnc(N)c1C#N)c1nc2cccc(Cl)c2c(=O)n1-c1cc(F)cc(F)c1` [Z, reference compound], the EC50 with basophils (basophil activation) is over 10 nM; with basophils (setting [3]) it was 10 to 50 nM. In addition, the half-life at 2 μM in data set [1] (setting [4]) is 1 to 3 h; in data set [1] (setting [7]), under 3 h. The compound also registered an IC50 at PI3Kδ of 1 to 10 nM. The half-life at 1 μM in data set [2] (setting [8]) is under 2 h.
